In patent publication US20240197888A1, “SOS1 PROTEIN DEGRADERS, PHARMACEUTICAL COMPOSITIONS THEREOF, AND THEIR THERAPEUTIC APPLICATIONS” (BioTheryX, Inc., priority 2021, published 2024):

Columns and labels:
Type in all cases: cell-based
SOS1 = target: T1, SOS1 (Homo sapiens, UniProt Q07889); assay: Protein degradation assay (western blot) in MV-4-11 cells; conditions: 6 h; for Degradation 3 μM (SOS1 protein, % degradation relative to DMSO control): compound at 3 μM; for Degradation 10 μM (SOS1 protein, % degradation relative to DMSO control): compound at 10 μM
T1 construct: Whole cell extracts were prepared using an immunoprecipitation (IP) lysis buffer; endogenous in cells; host or cells: MV-4-11
T1 sequence (Q07889 1-1333): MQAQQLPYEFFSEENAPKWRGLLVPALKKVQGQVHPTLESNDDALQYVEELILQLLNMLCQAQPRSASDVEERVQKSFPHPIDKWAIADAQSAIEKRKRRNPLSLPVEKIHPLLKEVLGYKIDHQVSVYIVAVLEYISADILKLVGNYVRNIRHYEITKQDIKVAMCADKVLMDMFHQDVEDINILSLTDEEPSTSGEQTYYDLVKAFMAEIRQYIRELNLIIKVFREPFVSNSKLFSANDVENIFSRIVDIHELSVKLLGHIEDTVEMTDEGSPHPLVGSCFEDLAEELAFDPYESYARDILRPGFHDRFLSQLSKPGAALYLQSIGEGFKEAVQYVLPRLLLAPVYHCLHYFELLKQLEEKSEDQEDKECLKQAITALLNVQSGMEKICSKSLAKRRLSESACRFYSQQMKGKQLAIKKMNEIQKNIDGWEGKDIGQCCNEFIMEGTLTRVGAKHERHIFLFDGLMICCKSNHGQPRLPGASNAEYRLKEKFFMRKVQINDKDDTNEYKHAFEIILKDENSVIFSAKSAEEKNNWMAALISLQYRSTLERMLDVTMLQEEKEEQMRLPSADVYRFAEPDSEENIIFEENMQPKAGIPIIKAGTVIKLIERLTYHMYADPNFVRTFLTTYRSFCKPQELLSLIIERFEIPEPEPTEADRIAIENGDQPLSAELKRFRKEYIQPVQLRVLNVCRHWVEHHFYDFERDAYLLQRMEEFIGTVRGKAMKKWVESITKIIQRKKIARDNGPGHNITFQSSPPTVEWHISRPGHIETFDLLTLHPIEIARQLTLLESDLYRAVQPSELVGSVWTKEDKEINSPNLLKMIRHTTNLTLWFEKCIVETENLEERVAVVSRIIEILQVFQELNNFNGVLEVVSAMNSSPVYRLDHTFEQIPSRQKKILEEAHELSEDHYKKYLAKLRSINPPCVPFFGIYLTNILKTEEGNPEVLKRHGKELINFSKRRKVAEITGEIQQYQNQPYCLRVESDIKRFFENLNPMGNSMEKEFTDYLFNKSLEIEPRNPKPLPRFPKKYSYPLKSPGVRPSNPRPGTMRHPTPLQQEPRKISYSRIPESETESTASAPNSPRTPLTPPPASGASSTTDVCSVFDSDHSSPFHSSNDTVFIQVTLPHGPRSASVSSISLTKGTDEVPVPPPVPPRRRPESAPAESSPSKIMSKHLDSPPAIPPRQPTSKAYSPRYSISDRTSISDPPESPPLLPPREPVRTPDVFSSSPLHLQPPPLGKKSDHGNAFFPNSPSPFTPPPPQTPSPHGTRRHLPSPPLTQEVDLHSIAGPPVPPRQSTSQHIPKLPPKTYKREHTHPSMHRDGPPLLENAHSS
Protocol: MV-4-11 cells were grown in RPMI 1640 media supplemented with 10% fetal bovine serum, streptomycin, and penicillin. The cells were plated in 24-well plates in the growth media. The cells were then treated with a compound at indicated concentrations for 6 h. Whole cell extracts were prepared using an immunoprecipitation (IP) lysis buffer. Briefly, the cells were washed once in PBS, and the cell pellets were resuspended in the IP lysis buffer and incubated for 15 min on ice. Cell debris was removed by centrifugation and the cleared whole cell lysates were transferred to new tubes for further analysis.
For a western blot analysis, the whole cell protein extracts were separated on 4-12% SDS-polyacrylamide gels, transferred to nitrocellulose, and probed with primary antibodies. The nitrocellulose was subsequently washed and probed with IRDYE® secondary antibodies. The signals were detected using an ODYSSEY® Imaging System. The antibodies used in the assay included anti-SOS1; anti-KRAS; β-actin mouse monoclonal antibody; IRDYE® 680RD goat anti-rabbit antibody; and IRDYE® 800CW goat anti-mouse antibody.
[…] The % degradation values relative to the DMSO control are reported as “A,” “B,” “C,” or “D;” where “A” represents a percentage degradation value of no less than 50%; “B” represents a percentage degradation value of less than 50% and no less than 25%; “C” represents a percentage degradation value of less than 25% and no less than 10%; and “D” represents a percentage degradation value of less than 10%.

Lovo (G13D) cells = assay: Cell viability assay (CELLTITER-GLO), Lovo cells; conditions: Homo sapiens, 72 h, Inhibition of cancerous cells, 3 days incubation, luminescence
Protocol: (§1) AsPC-1, H358, and SW48 cells were cultured in RPMI 1640 media supplemented with 10% fetal bovine serum, streptomycin, and penicillin. Lovo and SW480 cells were cultured in DMEM media supplemented with 10% fetal bovine serum, streptomycin, and penicillin. The cell lines were plated in their respective medium supplemented with 2.5% fetal bovine serum, streptomycin, and penicillin. All cell lines were plated in white walled 96-well plates at 2,000 cells/well or 384-well plates at 500 cells/well, except Lovo, which were plated at 4,000 or 1,000 cells/well, respectively. The cells were incubated in DMSO (control) or a compound for 3 days at 37° C. under 5% CO2. A CELLTITER-GLO® reagent ([…] was then added to each well. After a 10 min incubation with shaking, luminescence was measured using an ENVISION® multimode plate reader. IC50 values are summarized in Table 1.

SW48 (wt) cells = assay: Cell viability assay (CELLTITER-GLO), SW48 cells; conditions: Homo sapiens, 72 h, Inhibition of cancerous cells, 3 days incubation, luminescence
Protocol: as §1

H358 (G12C) cells = assay: Cell viability assay (CELLTITER-GLO), H358 cells; conditions: Homo sapiens, NCI-H358, 72 h, Inhibition of cancerous cells, 3 days incubation, luminescence
Protocol: as §1

SW480 (G12V) cells = assay: Cell viability assay (CELLTITER-GLO), SW480 cells; conditions: Homo sapiens, 72 h, Inhibition of cancerous cells, 3 days incubation, luminescence
Protocol: as §1

IC50 (Lovo (G13D) cells) [µM]	IC50 (SW48 (wt) cells) [µM]	IC50 (H358 (G12C) cells) [µM]	IC50 (SW480 (G12V) cells) [µM]	SMILES	Degradation 3 μM (SOS1 protein, % degradation relative to DMSO control) (SOS1)	Degradation 10 μM (SOS1 protein, % degradation relative to DMSO control) (SOS1)
–	–	–	–	CNCc1ccccc1-c1csc([C@@H](C)Nc2nc(CCCCCCCCN3CCCCC3)nc3cc(OC)c(OC)cc23)c1 [Compound C1, (R)-6,7-Dimethoxy-N-(1-(4-(2-((methylamino)methyl)phenyl)thiophen-2-yl)ethyl)-2-(8-(piperidin-1-yl)octyl)quinazolin-4-amine]	D (a percentage degradation value of less than 10%)	D (a percentage degradation value of less than 10%)
0.63	0.68	1.1	0.52	COc1cc2c(N[C@H](C)c3cccc(Br)c3)nc(C)nc2cc1OCCCCCCCN1CCCCC1 [Compound A1, (R)—N-(1-(3-bromophenyl)ethyl)-6-methoxy-2-methyl-7-((7-(piperidin-1-yl)heptyl)oxy)quinazolin-4-amine]	B (a percentage degradation value of less than 50% and no less than 25%)	A (a percentage degradation value of no less than 50%)
